The subject of one experiment is old acyclic rats. To be noted: cited from earlier work.
The test system of experiment [1] is release of norepinephrine (NE) from the hypothalamus. The experiment can be described thus: norepinephrine release and content, static in vitro incubation of hypothalami, HPLC-EC. The class given is cell-based, Sprague-Dawley rats. To be noted: for content of NE in the hypothalami at the end of the experiment: control 1104±588. The procedure:
(§1) Four- to six-month old male Sprague-Dawley rats were obtained from Amitech (Omaha, Nebr.). These rats were housed in groups in air-conditioned (23±2° C.) and light controlled (lights on from 0700-1900 hours) animal rooms. They were provided rat chow and water ad libitum.
(§2) On the day of the experiment, the rats were sacrificed between 1200-1300 hrs. The brains were removed immediately and the hypothalami were dissected out using the following boundaries: the posterior part of the optic chiasmas the anterior limit, the anterior part of the mammillary bodies as the posterior limit, and the lateral hypothalamic sulci as the lateral limits (Palazzolo et al., Life Sci. 47: 2105-2109 (1990); Palazzolo et al., Life Sci. 51: 1797-1802 (1992)).
(§3) The hypothalami were weighed and divided into two halves along the sagittal plane and placed in a 12×75 mm glass tube containing 300 μl of Krebs-Ringer Henseleit (KRH) solution. The hypothalami were incubated in a static in vitro incubation system as described previously (Palazzolo et al., Life Sci. 47: 2105-2109 (1990); Palazzolo et al., Life Sci. 51: 1797-1802 (1992)). Briefly, the incubation system consisted of a plexiglass water bath, a magnetic circulator fin, and a thermostat coil. The bath was filled with distilled water and the thermostat was switched on at least an hour before the perfusion. The temperature in the water bath was maintained at 37° C. The magnetically controlled circulator fins stirred the water constantly to maintain a uniform temperature throughout the water bath. The incubation medium, KRH, consisted of 117 mM NaCl, 4.7 mM KCl, 1.2 mM MgSO4, 1.2 mM KH2PO4, 2.5 mM CaCl2, 24.8 mM NaHCO3, 11.1 mM glucose, 0.1 mg/ml ascorbic acid in 1 L of pyrogen free water. During the experiment, the incubation medium was supplied a mixture of 95% oxygen and 5% carbon dioxide constantly through gas inlet lines at a slow and steady rate to avoid turbulence. To stabilize the release of monoamines, each hypothalamus was preincubated in KRH for 60 min. Following this, the hypothalami were incubated for four 60-min periods as described below.
(§4) During the first incubation period, the hypothalami were incubated in KRH for 60 min to measure the basal release of monoamines and their metabolites. During the second incubation period, the hypothalami were incubated in KRH containing 0, 0.1 mM, 1.0 mM, or 10 mM of deprenyl. After this, the hypothalami were rinsed and incubated in KRH alone (without deprenyl) during the third incubation period to measure the residual effects, if any, from the pervious incubation period. In the final incubation period, the hypothalami were incubated with high K^+ KRH, which, had the same composition as the KRH except that it contained 60 mM KCl and 57 mM NaCl, to check the viability of the tissue. Hypothalami were rinsed with KRH in between incubations. After each incubation period, incubation medium was removed and 0.1 M HClO4 was added to it at the ratio of 25:1 (v/v) and was stored at −70° C. until analysis for neurotransmitters by HPLC-EC. At the end of the treatment period, the hypothalami were transferred to microsample vials containing 0.1 M HClO4 and were stored at −70° C. At the time of HPLC analysis, the hypothalami were homogenized in KRH and centrifuged at 1000 RPM for 15 min and the supernatant was used for the measurement of neurotransmitters.
(§5) The HPLC-EC system has been described before (Palazzolo et al., Life Sci. 47: 2105-2109 (1990); Palazzolo et al., Life Sci. 51: 1797-1802 (1992); ThyagaRajan, S.; Meites et al., Endocrinol. 136: 1103-1110 (1995)). Briefly, it consisted of an LC-4B electrochemical detector (Bioanalytical Systems, West Lafayette, Ind.); a phase II, 5 μm ODS reverse phase, C-18 column; a glassy carbon electrode, a C-R6A Chromatopac integrator, a CTO-6A column oven, and an LC-6A pump (Shimadzu, Columbia, Md.). […]

In another experiment the test system is old male rats. To be noted: cited from earlier work.
Experiment [2] relates to release of 5-hydroxyindoleacetic acid (5-HIAA) from the hypothalamus. The experiment can be described thus: 5-HIAA release and content, static in vitro incubation of hypothalami, HPLC-EC. Format: cell-based, Sprague-Dawley rats. The procedure: as §1, §2
The hypothalami were weighed and divided into two halves along the sagittal plane and placed in a 12×75 mm glass tube containing 300 μl of Krebs-Ringer Henseleit (KRH) solution. The hypothalami were incubated in a static in vitro incubation system as described previously (Palazzolo et al., Life Sci. 47: 2105-2109 (1990); Palazzolo et al., Life Sci. 51: 1797-1802 (1992)). Briefly, the incubation system consisted of a plexiglass water bath, a magnetic circulator fin, and a thermostat coil. The bath was filled with distilled water and the thermostat was switched on at least an hour before the perfusion. […]

Experiment [3] deals with release of dopamine (DA) from the hypothalamus. Kind of experiment: dopamine release and content, static in vitro incubation of hypothalami, HPLC-EC. Format: cell-based, Sprague-Dawley rats. To be noted: for DA release after removal of deprenyl: third incubation period; for DA content of the hypothalami at the end of the experiment: p<0.05. The procedure:
as §1, §2, §3, §4, §5

The next experiment concerns serum prolactin. Particulars: young and old rats; cited from earlier work.
The test system of experiment [4] is release of serotonin (5-HT) from the hypothalamus. Kind of experiment: 5-HT release and content, static in vitro incubation of hypothalami, HPLC-EC. Particulars: for 5-HT release: second incubation period, control 41.0±21; for content of 5-HT at the end of the experiment: p<0.05. The class given is cell-based, Sprague-Dawley rats. Here is the method:
as §1, §2, §3, §4, §5

Experiment [5] has as its system retired racing female greyhounds. Kind of experiment: induction of heat in retired racing female greyhounds previously treated with testosterone. The class given is in vivo, greyhound (canine). To be noted: oral in saline, seven animals, saline control 22%. The procedure: Retired racing female greyhounds that were previously treated with testosterone were used in the experiments. Nine animals were used in the control group, and seven animals each were used in the low dose (0.5 mg/kg body weight deprenyl) and the high dose (0.75 mg/kg body weight) groups. Control animals were treated with oral saline solution. Experimental, animals were treated with one of the two doses of deprenyl orally dissolved in saline.

For experiment [6], the system named is carcinogen-induced mammary tumor. To be noted: rats; cited from earlier work.
The test system of experiment [7] is release of dihydroxyphenylacetic acid (DOPAC) from the hypothalamus. The experiment can be described thus: DOPAC release and content, static in vitro incubation of hypothalami, HPLC-EC. The class given is cell-based, Sprague-Dawley rats. Particulars: for concentration of DOPAC in the hypothalamus at the end of the experiment: control 416±176; for DOPAC release: second incubation period; for DOPAC release after removal of deprenyl from the medium: third incubation period. Here is the method:
as §1, §2, §3, §4, §5

Another experiment deals with greyhound bitches. To be noted: Bruyette et al., personal communication; cited from earlier work.

No end group written: not given here.

Regarding `C#CCN(C)C(C)Cc1ccccc1` (stereo not drawn) [deprenyl, phenethylamine, N, alpha-dimethyl-N-2-propynyl], in the experiment with old acyclic rats, the “restoration of heat and the estrous cycle” value (from here on “restoration”) is “restore heat and the estrous cycle”. The “content of NE in the hypothalami at the end of the experiment” value in experiment [1] (0.1 mM deprenyl group) was found to be 743.3±179; in experiment [1] (1 mM deprenyl group, p<0.05), 388.1±71; in experiment [1] (10 mM deprenyl group, p<0.05), 281.3±91. Further, the “NE release (Mean±S.E.)” value in experiment [1] (0.1 mM deprenyl, second incubation period (KRH+DEP), pretreatment 196.9±43, increase not significant) is recorded as 252.3±48 pg/mg hypothalamus; in experiment [1] (0.1 mM group, fourth period, high potassium KRH, p<0.05), 538.2±142 pg/mg hypothalamus; in experiment [1] (0.1 mM group, third incubation period (KRH alone after deprenyl)), 185.1±42 pg/mg hypothalamus; in experiment [1] (1 mM group, last period, high K+ KRH, p<0.05), 375.2±92 pg/mg hypothalamus; in experiment [1] (1 mM group, third incubation period (KRH alone)) it was 267.7±28 pg/mg hypothalamus; in [1] (10 mM deprenyl, second incubation period, pretreatment 132.8±56, p<0.05), 799.9±141 pg/mg hypothalamus. In addition, the “NE release (Mean±S.E.)” value in experiment [1] (10 mM group, high K+ KRH, not statistically significant) was 222.4±57 pg/mg hypothalamus; in [1] (10 mM group, third incubation period (KRH alone)) it was 159.8±41 pg/mg hypothalamus. The sexual activity entry in the experiment with old male rats is reported as “increase sexual activity”. Moreover, the “content of 5-HIAA in the hypothalami at the end of the experiment” value in [2] (deprenyl treated groups compared to the control group, P<0.05) is recorded as “significantly low”. The “release of 5-HIAA” value in experiment [2] (hypothalami incubated with different doses of deprenyl (0.1, 1, 10 mM)) was “dose-dependant decrease”. Besides, the DA release is on record as 125.1±49 in [3] (0.1 mM deprenyl, second incubation period, not significantly different from pretreatment); 393.1±109 in experiment [3] (0.1 mM group, high K+ KRH, significant increase); 154.8±59 in experiment [3] (1 mM deprenyl, second incubation period, pretreatment 42.9±6); 106.8±27 in experiment [3] (1 mM group, high K+ KRH, significant increase); 197.7±63 in experiment [3] (10 mM deprenyl, second incubation period); 85.3±40 in experiment [3] (10 mM group, high potassium KRH, not statistically significant from pretreatment). In addition, the “DA release after removal of deprenyl” value in experiment [3] (0.1 mM group) is on record as “brought DA release to pretreatment levels”; in experiment [3] (1 mM group) it was “brought DA release to pretreatment levels”; in [3] (10 mM group), “returned DA release to basal levels”. Also, the “DA content of the hypothalami at the end of the experiment” value in experiment [3] (1 mM group compared to 0 mM group) and in experiment [3] (10 mM group compared to 0 mM group) was “significantly less” each time. The serum prolactin concentrations entry in the experiment on serum prolactin is reported as “decreases serum prolactin concentrations”. Moreover, the 5-HT release in experiment [4] (0.1 mM deprenyl) is 186.4±62; in [4] (1 mM deprenyl) it was 438.4±85; in experiment [4] (10 mM deprenyl) it was 670.3±199. In experiment [4] (0.1 mM group), the “5-HT release on stimulation with high potassium KRH” value is “significant increase”. In addition, the “content of 5-HT at the end of the experiment” value in experiment [4] (1 mM group compared to the control group) and in experiment [4] (10 mM group compared to the control group) was “significantly reduced” throughout. Moreover, in experiment [4] (third incubation period), the “5-HT release upon removal of deprenyl from the medium” value is “declined rapidly”. Moreover, the “animals that came to heat” value in [5] (higher dose 0.75 mg/kg body weight) is on record as 86%; in experiment [5] (low dose 0.5 mg/kg body weight), “Fifty”. For the same compound, the “carcinogen-induced mammary tumor growth” value in [6] was “inhibits carcinogen-induced mammary tumor growth”. The “concentration of DOPAC in the hypothalamus at the end of the experiment” value in experiment [7] (0.1 mM deprenyl group) was found to be 290.0±110; in experiment [7] (1 mM deprenyl group, p<0.05) it was 86.8±34; in [7] (10 mM deprenyl group, p<0.05) it was 34.3±16. The DOPAC release entry in experiment [7] (0.1 mM deprenyl) is on record as “did not produce any change”; in experiment [7] (1 mM deprenyl, pretreatment 267.7±46, p<0.01) it was 139.6±19; in experiment [7] (10 mM deprenyl, pretreatment 285.6±28, p<0.001), 68.9±20. The “DOPAC release after removal of deprenyl from the medium” value in [7] (1 mM group) and in [7] (10 mM group) was “remained low” in each case. For the same compound, the “DOPAC release on stimulation with high potassium KRH” value in experiment [7] (all the deprenyl-treated groups (0.1, 1, 10 mM)) is “did not produce any increase”.

As for `N[C@@H](Cc1ccc(O)c(O)c1)C(=O)O` [1-dopa], in the experiment with old acyclic rats, the “restoration” value is “restoration of heat and the estrous cycle”.

For the compound “GnRH: hypothalamic hormone called gonadotropin-releasing hormone (QHWSYGLRPG; ends and bridges not checked; UniProt P01148 24-33, looked up)”, the induction of heat result with greyhound bitches is on record as “unable to induce heat”.

As to `CC(C)NNC(=O)c1ccncc1` [Iproniazid, 4-pyridinecarboxyylic acid, 2-(1-methylethyl)hydrazine], the “restoration” value with old acyclic rats is reported as “reinstate the estrous cycle”.

The record behind these values is patent US20030212144A1, “Method for inducing an estrous cycle and pregnancy in a female mammal” (priority 2003, published 2003).
